Test results published in patent US9630957B2, “2,3-butanediamide epoxide compound and preparation method and use thereof” (Institute of Pharmacology and Toxicology Academy of …, priority 2014, dated 2017).
≈ marks a conversion by molar mass, not a printed value.

Tests used:
[1] = test system: Vero cells; experiment: Cytotoxicity of the compounds for Vero cells (CPE observation, TC50); type: cell-based; conditions: no virus
Description: (§1) 2. Sample treatment: the compounds of the present invention are dissolved in DMSO or diluent to prepare stock solution which is stored at −20° C. The stock solution is formulated to suitable incipient concentration with culture solution immediately before use, and then 3-fold diluted with the culture solution, 8 degrees of dilution each.
(§2) 4. Test Method: Vero cells are seeded into a 96-well culture plate, at 5% CO2, and cultured at 37° C. for 16 hours. The Vero cells are added with different dilutions of drugs, and the degree of cytopathic effect (CPE) in each group is observed. The half toxic concentration (TC50) of each sample for Vero cells is calculated. Vero cells are added with 100TCID50 enterovirus EV71 respectively, and the virus solution is discarded after adsorption at 37° C. for 1 hour, and then drugs with various degrees of dilution are added respectively. Virus control and cell control are set and incubated at 37° C. The degree of cytopathic effect (CPE) in each group is observed when the degree of cytopathic effect (CPE) of virus control group reaches 4+. The half inhibitory concentration (IC50) of each sample for enterovirus EV71 are calculated. Selectivity Index (SI) is calculated according to the following equation: SI=TC50/IC50.

[2] = test system: enterovirus EV71 (BrCr strain); experiment: Activity screening for anti-enterovirus EV71: inhibition of cytopathic effect in Vero cells; type: cell-based; conditions: for IC50: 100TCID50, Vero cells, CPE read when virus control reaches 4+, read-out: IC50 (half inhibitory concentration for enterovirus EV71); for SI (Selectivity Index = TC50/IC50): Vero cells
Description: Test item: Activity screening of the compounds for anti-enterovirus EV71
Test principle: Vero cells are used as viral host. The inhibition of the compound of the invention on the degree of cytopathic effect of Vero cells caused by enterovirus virus EV71 is determined.
1. Virus strain: enterovirus EV71 (BrCr, American Type Culture Collection, ATCC)
as §1
3. Positive control drug: Pirodavir (LGM Pharma), which is a broad-spectrum anti-viral inhibitor.
as §2

IC50 [2]	melting point	SMILES	TC50 (half toxic concentration for Vero cells) [1]	SI (Selectivity Index = TC50/IC50) [2]
38.5 µg/mL (≈ 61.4 µM)	205.6 to 206.3 °C	COc1ccc(NC(=O)[C@H]2O[C@@H]2C(=O)N(Cc2ccc(F)cc2)c2ccc(C(=O)Nc3nc4ccccc4s3)cc2)cc1OC [Compound 17, (2S,3S)—N^2-(4-(benzo[d]thiazol-2-ylcarbamoyl)phenyl)-N^3-(3,4-dimethoxyphenyl)-N^2-(4-fluorobenzyl)-2,3-epoxybutanediamide]	115.47 µg/mL	3.00
> 0.82 µg/mL	209.8 to 210.3 °C	O=C(Nc1nc2ccccc2s1)c1ccc(N(Cc2ccc(F)cc2)C(=O)[C@H]2O[C@@H]2C(=O)Nc2cccc(Cl)c2)cc1 [Compound 23, (2S,3S)—N^2-(4-(benzo[d]thiazol-2-ylcarbamoyl)phenyl)-N^3-(3-chlorophenyl)-N^2-(4-fluorobenzyl)-2,3-epoxybutanediamide]	1.43 µg/mL	–
> 0.82 µg/mL	206.7 to 207.5 °C	O=C(Nc1nc2ccccc2s1)c1ccc(N(Cc2ccc(F)cc2)C(=O)[C@H]2O[C@@H]2C(=O)Nc2ccc(Cl)cc2Cl)cc1 [Compound 26, (2S,3S)—N^2-(4-(benzo[d]thiazol-2-ylcarbamoyl)phenyl)-N^3-(2,4-dichlorophenyl)-N^2-(4-fluorobenzyl)-2,3-epoxybutanediamide]	1.43 µg/mL	–
> 0.27 µg/mL	216.4 to 217.2 °C	O=C(Nc1nc2ccccc2s1)c1ccc(N(Cc2ccc(F)cc2)C(=O)[C@H]2O[C@@H]2C(=O)Nc2nccs2)cc1 [Compound 32, (2S,3S)—N^2-(4-(benzo[d]thiazol-2-ylcarbamoyl)phenyl)-N^2-(4-fluorobenzyl)-N^3-(2-thiazolyl)-2,3-epoxybutanediamide]	1.19 µg/mL	–
> 2.47 µg/mL	156.5 to 157.2 °C	COc1ccc(NC(=O)[C@H]2O[C@@H]2C(=O)N(Cc2ccccc2)c2ccccc2)cc1OC [Compound 1, (2S,3S)—N^2-benzyl-N^2-phenyl-N^3-(3,4-dimethoxyphenyl)-2,3-epoxybutanediamide]	10.68 µg/mL	–
0.27 µg/mL (≈ 0.671 µM)	130.7 to 131.7 °C	COc1cccc(NC(=O)[C@H]2O[C@@H]2C(=O)N(Cc2ccccc2)c2ccccc2)c1 [Compound 7, (2S,3S)—N^2-benzyl-N^2-phenyl-N^3-(3-methoxyphenyl)-2,3-epoxybutanediamide]	4.28 µg/mL	15.85
> 0.82 µg/mL	199.7 to 200.5 °C	O=C(Nc1nc2ccccc2s1)c1ccc(N(Cc2ccc(F)cc2)C(=O)[C@H]2O[C@@H]2C(=O)Nc2ccc(F)cc2)cc1 [Compound 29, (2S,3S)—N^2-(4-(benzo[d]thiazol-2-ylcarbamoyl)phenyl)-N^3-(4-fluorophenyl)-N^2-(4-fluorobenzyl)-2,3-epoxybutanediamide]	1.43 µg/mL	–
0.27 µg/mL (≈ 0.664 µM)	179.2 to 179.6 °C	O=C(Nc1cccc(Cl)c1)[C@H]1O[C@@H]1C(=O)N(Cc1ccccc1)c1ccccc1 [Compound 8, (2S,3S)—N^2-benzyl-N^2-phenyl-N^3-(3-chlorophenyl)-2,3-epoxybutanediamide]	4.28 µg/mL	15.85

The next lines start with the compound.

SMILES	IC50 [2]	melting point	TC50 (half toxic concentration for Vero cells) [1]	SI (Selectivity Index = TC50/IC50) [2]
O=C(Nc1ccc(F)cc1)[C@H]1O[C@@H]1C(=O)N(Cc1ccccc1)c1ccccc1 [Compound 5, (2S,3S)—N^2-benzyl-N^2-phenyl-N^3-(4-fluorophenyl)-2,3-epoxybutanediamide]	2.47 µg/mL (≈ 6.33 µM)	153.8 to 154.7 °C	10.68 µg/mL	4.32
O=C(Nc1ccccc1Cl)[C@H]1O[C@@H]1C(=O)N(Cc1ccccc1)c1ccccc1 [Compound 11, (2S,3S)—N^2-benzyl-N^2-phenyl-N^3-(2-chlorophenyl)-2,3-epoxybutanediamide]	0.15 µg/mL (≈ 0.369 µM)	117.3 to 118.2 °C	1.43 µg/mL	9.53
O=C(Nc1ccccc1F)[C@H]1O[C@@H]1C(=O)N(Cc1ccccc1)c1ccccc1 [Compound 6, (2S,3S)—N^2-benzyl-N^2-phenyl-N^3-(2-fluorophenyl)-2,3-epoxybutanediamide]	0.82 µg/mL (≈ 2.1 µM)	139.2 to 140.3 °C	4.28 µg/mL	5.22
O=C(Nc1cccc(Cl)c1Cl)[C@H]1O[C@@H]1C(=O)N(Cc1ccccc1)c1ccccc1 [Compound 10, (2S,3S)—N^2-benzyl-N^2-phenyl-N^3-(2,3-dichlorophenyl)-2,3-epoxybutanediamide]	0.15 µg/mL (≈ 0.34 µM)	115.7 to 115.8 °C	1.43 µg/mL	9.53
O=C(Nc1nc2ccccc2s1)c1ccc(N(Cc2ccc(F)cc2)C(=O)[C@H]2O[C@@H]2C(=O)Nc2ccc(F)c(F)c2)cc1 [Compound 22, (2S,3S)—N^2-(4-(benzo[d]thiazol-2-ylcarbamoyl)phenyl)-N^3-(3,4-difluorophenyl)-N^2-(4-fluorobenzyl)-2,3-epoxybutanediamide]	> 0.27 µg/mL	219.2 to 219.7 °C	1.19 µg/mL	–
O=C(Nc1nc2ccccc2s1)c1ccc(N(Cc2ccc(F)cc2)C(=O)[C@H]2O[C@@H]2C(=O)Nc2ccc(Cl)c(Cl)c2)cc1 [Compound 31, (2S,3S)—N^2-(4-(benzo[d]thiazol-2-ylcarbamoyl)phenyl)-N^3-(3,4-dichlorophenyl)-N^2-(4-fluorobenzyl)-2,3-epoxybutanediamide]	> 0.82 µg/mL	218.2 to 219.1 °C	1.43 µg/mL	–
O=C(Nc1ccc([N+](=O)[O-])cc1)[C@H]1O[C@@H]1C(=O)N(Cc1ccccc1)c1ccccc1 [Compound 9, (2S,3S)—N^2-benzyl-N^2-phenyl-N^3-(4-nitrophenyl)-2,3-epoxybutanediamide]	0.82 µg/mL (≈ 1.96 µM)	160.2 to 161.3 °C	4.28 µg/mL	5.22
O=C(Nc1nc2ccccc2s1)c1ccc(N(Cc2ccccc2)C(=O)[C@H]2O[C@@H]2C(=O)Nc2ccc(Cl)c(Cl)c2)cc1 [Compound 40, (2S,3S)—N^2-(4-(benzo[d]thiazol-2-ylcarbamoyl)phenyl)-N^2-benzyl-N^3-(3,4-dichlorophenyl)-2,3-epoxybutanediamide]	> 0.82 µg/mL	217.6 to 218.3 °C	1.43 µg/mL	–
O=C(Nc1cccc(F)c1)[C@H]1O[C@@H]1C(=O)N(Cc1ccccc1)c1ccccc1 [Compound 4, (2S,3S)—N^2-benzyl-N^2-phenyl-N^3-(3-fluorophenyl)-2,3-epoxybutanediamide]	2.47 µg/mL (≈ 6.33 µM)	180.5 to 182 °C	7.41 µg/mL	3.00
O=C(Nc1ccc(Cl)cc1)[C@H]1O[C@@H]1C(=O)N(Cc1ccccc1)c1ccccc1 [Compound 12, (2S,3S)—N^2-benzyl-N^2-phenyl-N^3-(4-chlorophenyl)-2,3-epoxybutanediamide]	0.23 µg/mL (≈ 0.565 µM)	175.2 to 175.8 °C	10.68 µg/mL	46.43
Cc1c(Cl)cccc1NC(=O)[C@H]1O[C@@H]1C(=O)N(Cc1ccc(F)cc1)c1ccc(C(=O)Nc2nc3ccccc3s2)cc1 [Compound 28, (2S,3S)—N^2-(4-(benzo[d]thiazol-2-ylcarbamoyl)phenyl)-N^3-(2-methyl-3-chlorophenyl)-N^2-(4-fluorobenzyl)-2,3-epoxybutanediamide]	> 0.27 µg/mL	210.3 to 211.1 °C	0.82 µg/mL	–
CCOC(=O)c1cnc(NC(=O)[C@H]2O[C@@H]2C(=O)N(Cc2ccc(F)cc2)c2ccc(C(=O)Nc3nc4ccccc4s3)cc2)s1 [Compound 35, (2S,3S)—N^2-(4-(benzo[d]thiazol-2-ylcarbamoyl)phenyl)-N^2-(4-fluorobenzyl)-N^3-(5-ethoxycarbonylthiazol-2-yl)-2,3-epoxybutanediamide]	> 2.47 µg/mL	218.6 to 219.2 °C	4.28 µg/mL	–
O=C(Nc1nc2ccccc2s1)c1ccc(N(Cc2ccc(F)cc2)C(=O)[C@H]2O[C@@H]2C(=O)Nc2cccc(F)c2)cc1 [Compound 30, (2S,3S)—N^2-(4-(benzo[d]thiazol-2-ylcarbamoyl)phenyl)-N^3-(3-fluorophenyl)-N^2-(4-fluorobenzyl)-2,3-epoxybutanediamide]	0.36 µg/mL (≈ 0.616 µM)	202.4 to 203.1 °C	1.43 µg/mL	3.97
